Data published in patent US8143419B2, “Trisubstituted 1,2,4-triazoles” (Janssen Pharmaceutica N. V., priority 2006, dated 2012).

Tests used:
hα7-wt nAChR = biological target: T1, hα7-wt nAChR (Homo sapiens, UniProt P36544); test: Ca2+ flux imaging (FDSS) (Protocol B), PAM activity with choline as agonist; assay type: cell-based; settings: for EC50: "<5" = no top plateau at maximal concentration; for Emax: read-out: % efficacy
T1 construct: expressed in transfected cells
Protocol: • Hanks buffered saline solution (HBSS, Invitrogen, Belgium), supplemented with 10 mM HEPES (Invitrogen, Belgium), CaCl2 to a final concentration of 5 mM, 0.1% Bovine serum albumin (Sigma-Aldrich NV, Belgium). b) Calcium-Sensitive Dye—Fluo-4AM • Fluo-4AM (Molecular Probes, USA) was dissolved in DMSO containing 10% Pluronic acid (Molecular Probes, USA) to give a stock solution which was diluted in assay buffer supplemented with 5 mM probenicid (Sigma, Aldrich NV, Belgium) to give a final concentration of 2 μM. c) 384-Well Plates • Black 384 well plate black/clear plates, PDL pre-coated (Corning, Incorporated, USA) d) Calcium Flux Measurement
A Functional drug screening system (FDSS, Hamamatsu) was used to measure intracellular free-calcium flux signals.
Monolayers of hα7-wt nAChR-expressing cells were grown in multi-well plates, in particular black-sided, transparent bottomed 384 well plates coated with poly-D-lysine for 24 hours prior to loading with a fluorescent calcium indicator, in a particular embodiment loading with fluo-4AM for up to 120 minutes.
PAM activity was detected in real time by applying the compounds to be tested to the loaded cells along with a α7 nicotinic receptor agonist during constant monitoring of cellular fluorescence in a FDSS. Compounds giving peak fluorescent responses greater than the response due to agonist alone, were considered to be α7 nAChR PAM's. In a particular embodiment, the α7 nicotinic receptor agonist was choline, a more particular embodiment choline applied at a sub-maximal concentration of 100 μM. In a further setting of the present invention the compounds to be tested were applied prior to the α7 nicotinic receptor agonist, in a particular embodiment up to 10 minutes prior to the agonist.
A control response to choline was calculated on each plate from the difference in peak in fluorescence in wells receiving either choline or assay buffer alone. Compounds of the present invention were tested at a concentration range from 0.01 μM to 30 μM. Compounds were considered to have an interesting activity when they potentiated the choline signal at least with 500% when tested at a concentration of 30 μM (the efficacy of 100 μM choline was defined as 100% in the absence of a PAM). The compounds also have a potentiating effect on the response to choline when measured by whole-cell patch clamp electrophysiology in GH4C1 cells stably over-expressing the human wild-type α7 receptor.

T1 sequence (P36544 23-502): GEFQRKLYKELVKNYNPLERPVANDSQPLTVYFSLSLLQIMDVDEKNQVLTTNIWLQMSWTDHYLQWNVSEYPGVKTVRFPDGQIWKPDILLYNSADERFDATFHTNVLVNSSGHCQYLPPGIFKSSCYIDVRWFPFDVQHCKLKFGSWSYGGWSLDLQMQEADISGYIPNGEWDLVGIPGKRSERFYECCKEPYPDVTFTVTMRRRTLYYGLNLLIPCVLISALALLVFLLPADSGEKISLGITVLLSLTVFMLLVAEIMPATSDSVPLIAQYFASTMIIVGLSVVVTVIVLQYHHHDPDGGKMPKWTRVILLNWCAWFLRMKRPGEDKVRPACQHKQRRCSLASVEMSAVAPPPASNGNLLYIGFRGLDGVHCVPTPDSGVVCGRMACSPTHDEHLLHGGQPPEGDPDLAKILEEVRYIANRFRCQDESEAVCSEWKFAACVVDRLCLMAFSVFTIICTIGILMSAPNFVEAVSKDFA

EC50 (hα7-wt nAChR) [nM]	melting point [°C]	Emax (hα7-wt nAChR) [%]	Structure (SMILES)
501	164.2 to 174.2		CN(C)C(=O)CCn1nc(Nc2cccc(C(F)(F)F)c2)nc1-c1ccncc1 [Compound 4]
126	255.1		CNC(=O)Cn1nc(Nc2ccc(F)c(C(F)(F)F)c2)nc1-c1ccc(OC)nc1 [Compound 110]
200	166.3 to 168.3		COCCNC(=O)Cn1nc(Nc2cccc(C(F)(F)F)c2)nc1-c1ccc2c(c1)OCCO2 [Compound 82]
1260	225.5		NC(=O)Cn1nc(Nc2cccc(C(F)(F)F)c2)nc1-c1ccc2c(c1)OCCO2 [Compound 21]
1260	165.8	818	COc1ccc(Nc2nc(-c3ccnc(C4CC4)c3)n(CCF)n2)cc1C(F)(F)F [Compound 44]
794	158.2		CN(C)C(=O)CCn1nc(Nc2cc(F)c(F)cc2F)nc1-c1ccc(NC2CC2)nc1 [Compound 193]
631	147.2		CCOC(=O)NCCn1nc(Nc2ccc(F)c(C(F)(F)F)c2)nc1-c1ccnc(C2CC2)c1 [Compound 140]
794	177.1	601	CC(C)c1ccc(-c2nc(Nc3cccc(C(F)(F)F)c3)nn2CCO)cn1 [Compound 71]
631	149		Cc1cc(Nc2nc(-c3ccnc(Cl)c3)n(CCC(=O)N(C)C)n2)ccc1F [Compound 192]
2510	164.2		CN(C)c1cc(-c2nc(Nc3cccc(C(F)(F)F)c3)nn2CCO)ccn1 [Compound 75]
158	188.7		CCNC(=O)Cn1nc(Nc2cccc(OC(F)(F)F)c2)nc1-c1ccc2c(c1)OCCO2 [Compound 158]
398	222.4		CNC(=O)Cn1nc(Nc2cccc(OC(F)(F)F)c2)nc1-c1ccc2c(c1)OCCN2C [Compound 157]
3160	231.3		CNC(=O)Cn1nc(Nc2ccc3c(c2)OC(F)(F)O3)nc1-c1cc(Cl)ncc1Cl [Compound 203]
> 10000	221.6		CNC(=O)Cn1nc(Nc2cc(F)c(F)c(NC)c2)nc1-c1ccnc(NC)c1 [Compound 35]
1580	208.6		CNC(=O)Cn1nc(Nc2cccc(OC(F)(F)F)c2)nc1-c1ccncc1NC [Compound 153]
2000	174	988	CC(C)(O)c1cc(-c2nc(Nc3ccc(F)c(C(F)(F)F)c3)nn2CC(=O)NC2CC2)ccn1 [Compound 122]
794	158.8		Cc1cc(-c2nc(Nc3ccc(F)c(C)c3)nn2CCC(=O)N(C)C)ccn1 [Compound 184]
5010	163.4 to 165.2		OCCn1nc(Nc2cc(Cl)ccc2Cl)nc1-c1ccncc1 [Compound 14]
2510	242.4		COc1ncccc1-c1nc(Nc2ccc(F)c(C(F)(F)F)c2)nn1CC(=O)NC1CC1 [Compound 121]
794	168.8		CN(C)C(=O)CCCn1nc(Nc2ccc(F)c(C(F)(F)F)c2)nc1-c1ccnc(Cl)c1 [Compound 68]
200	177.2		COc1ccc(Nc2nc(-c3ccnc(C)c3)n(CCC(=O)N(C)C)n2)cc1C(F)(F)F [Compound 144]
2000	240.4		COc1ccc(Nc2nc(-c3ccncc3)n(CCO)n2)cc1C(F)(F)F [Compound 143]
200	211.2		COc1ccc(Nc2nc(-c3ccncc3Cl)n(CCC(=O)N(C)C)n2)cc1C(F)(F)F [Compound 145]
316	177.7		COc1cc(-c2nc(Nc3cccc(C(F)(F)F)c3)nn2CCC(=O)N(C)C)cc(Cl)n1 [Compound 84]
398	182.2		Cc1cc(-c2nc(Nc3ccc4c(c3)OC(F)(F)O4)nn2CCC(=O)N(C)C)cc(C)n1 [Compound 209]
